Experimental data taken from US20260125400A1, “TYK2 DEGRADERS AND USES THEREOF” (Kymera Therapeutics, Inc., priority 2023, published 2026).

target: T1, TYK2 (Homo sapiens, UniProt P29597); assay: TYK2 MSD degradation in OCI-LY10 cells; format: cell-based; conditions: OCI-LY10 cells, 4 to 24 hours incubation
T1 construct: Degradation of TYK2 in cells was quantitatively measured using Meso Scale Discovery (MSD) technology; endogenous in cells; host or cells: OCI-LY10
Experimental: Example 7. TYK2 MSD Degradation
Degradation of TYK2 in cells was quantitatively measured using Meso Scale Discovery (MSD) technology. OCI-LY10 cells were seeded in 96-well plates with a density of 0.4 million cells per well in 100 μl fresh media. Compounds were then added to the assay plates with a final top concentration of 1 to 10 μM in a 1:3 dilution series with total of 9 doses. The assay plates were then incubated for 4 to 24 hours at 37° C. under […]. The assay plates were then centrifuged for 5 minutes, and the cell pellets were treated with 100 μl/well RIPA lysis buffer (Boston Bioproducts, BP-115D) with protease and phosphatase inhibitors (Roche, 05892791001 and 04906837001). To prepare MSD assay plates (MSD, L15XA), the plates were coated with the capture antibody (Santa Cruz Biotechnology, SC-5271) in PBS, at 40 μl/well. The plates were then incubated overnight at 4° C., washed 3 times with 150 μl/well TBST buffer (Cell Signaling Technology, 9997S) and blocked with 150 μl/well blocking buffer (MSD, R93BA-4). Cell lysates were then added to MSD assay plates and the plates were incubated at room temperature for 1 hour. The plates were then washed 3 times with 150 μl/well TBST buffer and 25 μl/well primary detection antibody (Cell Signaling Technology, #9312). The assay plates were then incubated at room temperature for 1 hour, washed 3 times with 150 μl/well TBST buffer, and 25 μl/well secondary detection antibody, SULFO-TAG anti-rabbit antibody (MSD, R32AB-1) were added. The assay plates were then incubated at room temperature for 1 hour, washed 3 times with 150 μl/well TB ST buffer, and 150 μl/well MSD reading buffer (MSD, R92TC-2) were added. The plates were then analyzed by an MSD reader. The data was analyzed by GraphPad Prism and the dose dependent TYK2 degradation was fit using the four-parameter inhibitor vs. response nonlinear regression.
The letter codes for TYK2 DC50 include: A (<1 nM); B (i to <10 nM); C (10 to 100 nM); D (>100 nM); and E (not tested). The letter codes for TYK2 Dmax % include: A (>90%); B (90 to >75%); C (75 to 50%); D (<50%); and E (not tested).

T1 sequence (P29597 whole entry): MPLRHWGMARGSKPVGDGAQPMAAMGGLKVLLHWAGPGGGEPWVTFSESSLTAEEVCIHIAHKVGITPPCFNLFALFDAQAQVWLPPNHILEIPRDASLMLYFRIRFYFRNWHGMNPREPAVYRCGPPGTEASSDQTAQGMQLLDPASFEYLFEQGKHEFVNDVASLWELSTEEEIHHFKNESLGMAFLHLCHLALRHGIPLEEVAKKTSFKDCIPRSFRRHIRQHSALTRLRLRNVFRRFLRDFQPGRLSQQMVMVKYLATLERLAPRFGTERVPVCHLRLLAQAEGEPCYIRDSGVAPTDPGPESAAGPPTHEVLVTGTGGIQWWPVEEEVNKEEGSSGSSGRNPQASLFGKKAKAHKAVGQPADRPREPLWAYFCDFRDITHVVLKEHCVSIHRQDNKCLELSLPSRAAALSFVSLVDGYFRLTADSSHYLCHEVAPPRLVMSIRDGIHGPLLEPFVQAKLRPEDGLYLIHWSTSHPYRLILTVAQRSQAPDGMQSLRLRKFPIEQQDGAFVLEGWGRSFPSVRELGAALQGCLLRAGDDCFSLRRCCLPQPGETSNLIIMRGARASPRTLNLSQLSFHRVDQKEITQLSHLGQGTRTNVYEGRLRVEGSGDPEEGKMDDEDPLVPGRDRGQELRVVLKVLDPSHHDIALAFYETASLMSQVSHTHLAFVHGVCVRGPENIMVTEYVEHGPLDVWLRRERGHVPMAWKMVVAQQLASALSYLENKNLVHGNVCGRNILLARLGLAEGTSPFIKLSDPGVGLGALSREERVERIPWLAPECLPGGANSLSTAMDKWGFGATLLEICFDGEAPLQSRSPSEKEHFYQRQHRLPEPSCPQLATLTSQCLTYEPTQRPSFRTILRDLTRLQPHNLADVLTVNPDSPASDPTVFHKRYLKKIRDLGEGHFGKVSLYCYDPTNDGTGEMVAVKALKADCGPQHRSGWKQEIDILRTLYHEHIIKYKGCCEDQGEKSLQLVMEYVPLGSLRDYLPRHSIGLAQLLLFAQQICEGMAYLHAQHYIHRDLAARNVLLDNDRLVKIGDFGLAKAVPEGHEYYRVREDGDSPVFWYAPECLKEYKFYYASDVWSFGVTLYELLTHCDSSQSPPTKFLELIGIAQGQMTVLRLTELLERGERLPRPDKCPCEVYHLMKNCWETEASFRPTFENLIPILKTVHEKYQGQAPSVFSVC

Row | SMILES | TYK2 MSD OCI-LY10 Dmax %
1 | CNc1cc(N2CCc3c(C#CCN4CCC(N5CCC6(CC5)CN(C(=O)c5ccc(Cl)c(N7CCC(=O)NC7=O)c5)C6)C(F)(F)C4)cccc32)nn2c(C(=O)N[C@@H]3C[C@@H]3F)cnc12 (stereo partly drawn) [I-702] | B (B (90 to >75%))
2 | CNc1cc(N2CCc3c(CN4CCC(N5CCC6(CCN(C(=O)c7cc(F)c(OC)c(N8CCC(=O)NC8=O)c7)CC6)CC5)C(F)(F)C4)cccc32)nn2c(C(=O)N[C@@H]3C[C@@H]3F)cnc12 (stereo partly drawn) [I-769] | B (B (90 to >75%))
3 | CNc1cc(N2CCc3c(-c4ccc(CN5CCC6(CCN(C(=O)c7cc(F)c(OC)c(N8CCC(=O)NC8=O)c7)CC6)C(F)(F)C5)cn4)cccc32)nn2c(C(=O)N[C@@H]3C[C@@H]3F)cnc12 [I-776] | B (B (90 to >75%))
4 | CNc1cc(N2CCc3c(-c4ccc(CN5CC6(CCN(C(=O)c7cc(Cl)c(C)c(N8CCC(=O)NC8=O)c7)CC6(F)F)C5)cn4)cccc32)nn2c(C(=O)N[C@@H]3C[C@@H]3F)cnc12 [I-634] | A (A (>90%))
5 | CNc1cc(N2CCc3c(-c4ccc(CN5CCC(N6CC(N7CCN(c8ccc9c(c8F)n(C)c(=O)n9C8CCC(=O)NC8=O)CC7)C6)C(F)(F)C5)cn4)cccc32)nn2c(C(=O)N[C@@H]3C[C@@H]3F)cnc12 (stereo partly drawn) [I-470] | B (B (90 to >75%))

same assay, conditions: OCI-LY10 cells, 4 to 24 hours incubation, read-out: TYK2 MSD OCI-LY10 Rel-DC50

Row | SMILES | DC50 [nM]
6 | CNc1cc(N2CCc3c(C#CCN4CCC(N5CCC6(CC5)CN(C(=O)c5ccc(Cl)c(N7CCC(=O)NC7=O)c5)C6)C(F)(F)C4)cccc32)nn2c(C(=O)N[C@@H]3C[C@@H]3F)cnc12 (stereo partly drawn) [I-702] | < 1
7 | CNc1cc(N2CCc3c(CN4CCC(N5CCC6(CCN(C(=O)c7cc(F)c(OC)c(N8CCC(=O)NC8=O)c7)CC6)CC5)C(F)(F)C4)cccc32)nn2c(C(=O)N[C@@H]3C[C@@H]3F)cnc12 (stereo partly drawn) [I-769] | < 10
8 | CNc1cc(N2CCc3c(-c4ccc(CN5CCC6(CCN(C(=O)c7cc(F)c(OC)c(N8CCC(=O)NC8=O)c7)CC6)C(F)(F)C5)cn4)cccc32)nn2c(C(=O)N[C@@H]3C[C@@H]3F)cnc12 [I-776] | < 10
9 | CNc1cc(N2CCc3c(-c4ccc(CN5CC6(CCN(C(=O)c7cc(Cl)c(C)c(N8CCC(=O)NC8=O)c7)CC6(F)F)C5)cn4)cccc32)nn2c(C(=O)N[C@@H]3C[C@@H]3F)cnc12 [I-634] | < 1
10 | CNc1cc(N2CCc3c(-c4ccc(CN5CCC(N6CC(N7CCN(c8ccc9c(c8F)n(C)c(=O)n9C8CCC(=O)NC8=O)CC7)C6)C(F)(F)C5)cn4)cccc32)nn2c(C(=O)N[C@@H]3C[C@@H]3F)cnc12 (stereo partly drawn) [I-470] | < 1

same assay, conditions: TYK2 degradation in OCI-LY10 cells, 4 to 24 hours incubation

Row | SMILES | TYK2 MSD OCI-LY10 Dmax %
11 | CNc1cc(N2CCc3c(-c4ccc(CN5CC6(CCN(C(=O)c7ccc(Cl)c(N8CCC(=O)NC8=O)c7)CC6)C5)cc4)cccc32)nn2c(C(=O)N[C@@H]3C[C@@H]3F)cnc12 [I-73] | C (C (75 to 50%))
12 | CNc1cc(N2CCc3c(-c4ccc(CN5CCC(N6CCC7(CCN(c8ccc9c(c8)n(C)c(=O)n9C8CCC(=O)NC8=O)CC7)CC6)C(F)(F)C5)cn4)cccc32)nn2c(C(=O)N[C@@H]3C[C@@H]3F)cnc12 (stereo partly drawn) [I-371] | C (C (75 to 50%))
13 | CNc1cc(N2CCc3c(CN4CCC(N5CCC6(CC5)CN(C(=O)c5cc(N7CCC(=O)NC7=O)c(Cl)cn5)C6)C(F)(F)C4)cccc32)nn2c(C(=O)N[C@@H]3CC[C@H]3OC)cnc12 (stereo partly drawn) [I-1158] | A (A (>90%))
14 | CNc1cc(N2CCc3c(-c4ccc(CN5CC6(CCN(C(=O)c7cccc(N8CCC(=O)NC8=O)c7C)CC6)C5)cn4)cccc32)nn2c(C(=O)NC3CC3F)cnc12 (stereo not drawn) [I-309] | D (D (<50%))
15 | CNc1cc(N2CCc3c(CN4CCC(N5CCC6(CCN(C(=O)c7cc(F)c(C)c(N8CCC(=O)NC8=O)c7)CC6)CC5)C(F)(F)C4)cccc32)nn2c(C(=O)N[C@@H]3C[C@@H]3F)cnc12 (stereo partly drawn) [I-843] | A (A (>90%))
16 | CNc1cc(N2CCc3c(N4CCN(C5CCC6(CC5)CCN(c5ccc7c(c5)n(C)c(=O)n7C5CCC(=O)NC5=O)CC6)CC4)cccc32)nn2c(C(=O)NC3CC3)cnc12 (stereo not drawn) [I-31] | D (D (<50%))
17 | CNc1cc(-c2cccc(N3CCN(Cc4ccc5c(c4)n(C)c(=O)n5C4CCC(=O)NC4=O)CC3)n2)nn2c(C(=O)NC3CC3)cnc12 (stereo not drawn) [I-198] | D (D (<50%))
18 | CNc1cc(N2CCc3c(CN4CC[C@@H](N5CCC6(CCN(C(=O)c7cc(N8CCC(=O)NC8=O)c(Cl)cn7)CC6)CC5)C(F)(F)C4)cc(F)cc32)nn2c(C(=O)N[C@@H]3CC[C@H]3OC)cnc12 [I-1147] | A (A (>90%))
19 | CNc1cc(N2CCc3c(-c4cc(CN5CC6(CCN(C(=O)c7ccc(Cl)c(N8CCC(=O)NC8=O)c7)CC6)C5)ccn4)cccc32)nn2c(C(=O)N[C@@H]3C[C@@H]3F)cnc12 [I-79] | D (D (<50%))
20 | CNc1cc(N2CCc3c(CN4CCC(CN5CCC6(CC5)CN(C(=O)c5ccc(Cl)c(N7CCC(=O)NC7=O)c5)C6)CC4)cccc32)nn2c(C(=O)N[C@@H]3C[C@@H]3F)cnc12 [I-893] | D (D (<50%))

same assay, conditions: TYK2 degradation in OCI-LY10 cells, 4 to 24 hours incubation, read-out: TYK2 MSD OCI-LY10 Rel-DC50

Row | SMILES | DC50 [nM]
21 | CNc1cc(N2CCc3c(-c4ccc(CN5CC6(CCN(C(=O)c7ccc(Cl)c(N8CCC(=O)NC8=O)c7)CC6)C5)cc4)cccc32)nn2c(C(=O)N[C@@H]3C[C@@H]3F)cnc12 [I-73] | < 10
22 | CNc1cc(N2CCc3c(-c4ccc(CN5CCC(N6CCC7(CCN(c8ccc9c(c8)n(C)c(=O)n9C8CCC(=O)NC8=O)CC7)CC6)C(F)(F)C5)cn4)cccc32)nn2c(C(=O)N[C@@H]3C[C@@H]3F)cnc12 (stereo partly drawn) [I-371] | < 10
23 | CNc1cc(N2CCc3c(CN4CCC(N5CCC6(CC5)CN(C(=O)c5cc(N7CCC(=O)NC7=O)c(Cl)cn5)C6)C(F)(F)C4)cccc32)nn2c(C(=O)N[C@@H]3CC[C@H]3OC)cnc12 (stereo partly drawn) [I-1158] | < 1
24 | CNc1cc(N2CCc3c(-c4ccc(CN5CC6(CCN(C(=O)c7cccc(N8CCC(=O)NC8=O)c7C)CC6)C5)cn4)cccc32)nn2c(C(=O)NC3CC3F)cnc12 (stereo not drawn) [I-309] | > 100
25 | CNc1cc(N2CCc3c(CN4CCC(N5CCC6(CCN(C(=O)c7cc(F)c(C)c(N8CCC(=O)NC8=O)c7)CC6)CC5)C(F)(F)C4)cccc32)nn2c(C(=O)N[C@@H]3C[C@@H]3F)cnc12 (stereo partly drawn) [I-843] | < 1
26 | CNc1cc(N2CCc3c(N4CCN(C5CCC6(CC5)CCN(c5ccc7c(c5)n(C)c(=O)n7C5CCC(=O)NC5=O)CC6)CC4)cccc32)nn2c(C(=O)NC3CC3)cnc12 (stereo not drawn) [I-31] | < 10
27 | CNc1cc(-c2cccc(N3CCN(Cc4ccc5c(c4)n(C)c(=O)n5C4CCC(=O)NC4=O)CC3)n2)nn2c(C(=O)NC3CC3)cnc12 (stereo not drawn) [I-198] | > 100
28 | CNc1cc(N2CCc3c(CN4CC[C@@H](N5CCC6(CCN(C(=O)c7cc(N8CCC(=O)NC8=O)c(Cl)cn7)CC6)CC5)C(F)(F)C4)cc(F)cc32)nn2c(C(=O)N[C@@H]3CC[C@H]3OC)cnc12 [I-1147] | < 1
29 | CNc1cc(N2CCc3c(-c4cc(CN5CC6(CCN(C(=O)c7ccc(Cl)c(N8CCC(=O)NC8=O)c7)CC6)C5)ccn4)cccc32)nn2c(C(=O)N[C@@H]3C[C@@H]3F)cnc12 [I-79] | < 10
30 | CNc1cc(N2CCc3c(CN4CCC(CN5CCC6(CC5)CN(C(=O)c5ccc(Cl)c(N7CCC(=O)NC7=O)c5)C6)CC4)cccc32)nn2c(C(=O)N[C@@H]3C[C@@H]3F)cnc12 [I-893] | > 100
